Measured values taken from patent US6737383B1, “Herbicidal oxadiazolidines” (priority 1999, dated 2004).

Tests used:
Details in all cases: Preemergence
[1] = system: purple nutsedge; experiment: Test B pre/postemergence purple nutsedge; assay type: in vivo, Cyperus rotundus
Procedure, shortened: (§1)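 Herbicidal effect was estimated by eye on a ten-point control scale after plants spent twelve to sixteen days in a greenhouse following soil or foliar treatment. Foliar sprays targeted plants at one to four leaves; all doses were formulated in a non-phytotoxic solvent with surfactant.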

[2] = system: soybean; experiment: Test B pre/postemergence soybean; assay type: in vivo, Glycine max
Procedure, shortened: as §1

[3] = system: pigweed; experiment: Test B pre/postemergence pigweed; assay type: in vivo, Amaranthus retroflexus
Procedure, shortened: as §1

[4] = system: wheat; experiment: Test B pre/postemergence wheat; assay type: in vivo, Triticum aestivum
Procedure, shortened: as §1

[5] = system: crabgrass; experiment: Test B pre/postemergence crabgrass; assay type: in vivo, Digitaria sanguinalis
Procedure, shortened: as §1

[6] = system: wild oat; experiment: Test B pre/postemergence wild oat; assay type: in vivo, Avena fatua
Procedure, shortened: as §1

[7] = system: surinam grass; experiment: Test B pre/postemergence surinam grass; assay type: in vivo, Brachiaria decumbens
Procedure, shortened: as §1

[8] = system: rape; experiment: Test B pre/postemergence rape; assay type: in vivo, Brassica napus
Procedure, shortened: as §1

[9] = system: cocklebur; experiment: Test B pre/postemergence cocklebur; assay type: in vivo, Xanthium strumarium
Procedure, shortened: as §1

[10] = system: bedstraw; experiment: Test B pre/postemergence bedstraw; assay type: in vivo, Galium aparine
Procedure, shortened: as §1

[11] = system: corn; experiment: Test B pre/postemergence corn; assay type: in vivo, Zea mays
Procedure, shortened: as §1

[12] = system: blackgrass; experiment: Test B pre/postemergence blackgrass; assay type: in vivo, Alopecurus myosuroides
Procedure, shortened: as §1

[13] = system: giant foxtail; experiment: Test B pre/postemergence giant foxtail; assay type: in vivo, Setaria faberii
Procedure, shortened: as §1

[14] = system: morningglory; experiment: Test B pre/postemergence morningglory; assay type: in vivo, Ipomoea hederacea
Procedure, shortened: as §1

[15] = system: sugar beet; experiment: Test B pre/postemergence sugar beet; assay type: in vivo, Beta vulgaris
Procedure, shortened: as §1

[16] = system: velvetleaf; experiment: Test B pre/postemergence velvetleaf; assay type: in vivo, Abutilon theophrasti
Procedure, shortened: as §1

[17] = Rate 62 g/ha, scale of 0 to 10 where 0 is no effect and 10 is complete control
[18] = Rate 250 g/ha, scale 0 (no effect) to 10 (complete control)
[19] = Rate 500 g/ha, scale 0 to 10 (0 no effect, 10 complete control)
[20] = Rate 125 g/ha, scale of 0 to 10 where 0 is no effect and 10 is complete control

C=C(Cn1c(=O)on(C(=O)N(c2ccc(F)cc2)C(C)C)c1=O)C(=O)OC [Compound 732]
0: Nutsedge plant response rating [1, 17] | Nutsedge plant response rating [1, 18] | Nutsedge plant response rating [1, 19] | Soybean plant response rating [2, 17] | Plant response rating, Soybean [2, 20] | Soybean plant response rating [2, 18] | Soybean plant response rating [2, 19] | Redroot pigweed plant response rating [3, 17] | Plant response rating, Redroot pigweed [3, 20] | Redroot pigweed plant response rating [3, 18] | Redroot pigweed plant response rating [3, 19] | Wheat plant response rating [4, 17] | Plant response rating, Wheat [4, 20] | Wheat plant response rating [4, 18] | Wheat plant response rating [4, 19] | Crabgrass plant response rating [5, 17] | Plant response rating, Crabgrass [5, 20] | Crabgrass plant response rating [5, 18] | Crabgrass plant response rating [5, 19] | Wild oats plant response rating [6, 17] | Plant response rating, Wild oats [6, 20] | Wild oats plant response rating [6, 18] | Wild oats plant response rating [6, 19] | B. signalgrass plant response rating [7, 17] | Plant response rating, B. signalgrass [7, 20] | B. signalgrass plant response rating [7, 18] | B. signalgrass plant response rating [7, 19] | Rape plant response rating [8, 17] | Plant response rating, Rape [8, 20] | Rape plant response rating [8, 18] | Rape plant response rating [8, 19] | Cocklebur plant response rating [9, 17] | Plant response rating, Cocklebur [9, 20] | Cocklebur plant response rating [9, 18] | Cocklebur plant response rating [9, 19] | Bedstraw plant response rating [10, 17] | Plant response rating, Bedstraw [10, 20] | Bedstraw plant response rating [10, 18] | Bedstraw plant response rating [10, 19] | Corn plant response rating [11, 17] | Plant response rating, Corn [11, 20] | Corn plant response rating [11, 18] | Corn plant response rating [11, 19] | Blackgrass plant response rating [12, 17] | Plant response rating, Blackgrass [12, 20] | Blackgrass plant response rating [12, 18] | Blackgrass plant response rating [12, 19] | Giant foxtail plant response rating [13, 17] | Plant response rating, Giant foxtail [13, 20] | Giant foxtail plant response rating [13, 18] | Giant foxtail plant response rating [13, 19] | Morningglory plant response rating [14, 17] | Plant response rating, Morningglory [14, 20] | Morningglory plant response rating [14, 18] | Morningglory plant response rating [14, 19] | Sugarbeets plant response rating [15, 17] | Plant response rating, Sugarbeets [15, 20] | Sugarbeets plant response rating [15, 18] | Sugarbeets plant response rating [15, 19] | Velvetleaf plant response rating [16, 17] | Plant response rating, Velvetleaf [16, 20] | Velvetleaf plant response rating [16, 18] | Velvetleaf plant response rating [16, 19]
